Consider four molecules from article PMC12721288, “Functional expression and properties of the tick α6 homomeric nicotinic acetylcholine receptor in Xenopus laevis oocytes” (Current Research in Parasitology & Vector-borne Diseases, 2025).

Like-named read-outs stand apart in the source and are kept apart here.

Type in all cases: cell-based, Ixodes ricinus
The test system of assay [1] is T1, Iricα6 homomeric nicotinic acetylcholine receptor.
T1 construct: Iricα6 homomeric receptor expressed in Xenopus laevis oocytes (co-injected with C. elegans RIC-3)
Nature of the assay: two-electrode voltage clamp in Xenopus oocytes, agonist dose-response. On the technique in general: In two-electrode clamp one electrode senses voltage and the other passes current.

Assay [2] shares this test system. Nature of the assay: two-electrode voltage clamp in Xenopus oocytes, inhibition of ACh-evoked currents.
For assay [3] the test system is unchanged. Nature of the assay: two-electrode voltage clamp in Xenopus oocytes, agonist-like dose-response.

For orientation: EC50 means the concentration that produces a half-maximal response. Consider `CC(=O)OCC[N+](C)(C)C` [ACh, acetylcholine], for which the EC50 in assay [1] was 27.7 ± 2.44 µM.

One may read the IC50 as the concentration that inhibits the measured activity by half. In assay [2], `CO[C@H]1CC=C2CCN3CCC4=C(CC(=O)OC4)[C@]23C1` [DHβE, dihydro-β-erythroidine] showed an IC50 of 0.00135 µM.

In the case of `CNC1(C)C2CCC(C2)C1(C)C` (stereo not shown) [MECA, mecamylamine], the concentration giving a half-maximal response (EC50) in assay [3] was 0.0126 µM.

Take `CCN1C[C@]2(COC(=O)c3ccccc3N3C(=O)C[C@H](C)C3=O)CC[C@H](OC)[C@@]34[C@@H]5C[C@H]6[C@H](OC)[C@@H]5[C@](O)(C[C@@H]6OC)[C@@](O)([C@@H](OC)[C@H]23)[C@@H]14` [MLA, methyllicaconitine]: the IC50 in assay [2] (read-out: IC50) came out at 0.00856 µM.
